US10525055B2, “Opioid receptor antagonist prodrugs” (Nirsum Laboratories, Inc., priority 2017, dated 2020)

Experiments:
[1] = Dog clinical observations after intramuscular dosing; format: in vivo, Beagle dogs; conditions: dog D1502, compound 18 at 48 mg/kg; earlier weight, reported at 96 hr
Protocol: Weight monitoring was done every week.
The dose formulation (concentration−400 mg base equivalents/ml in sesame oil+1% benzyl alcohol, unless otherwise specified) was administered via deep intramuscularly (unless otherwise specified). The injection vehicle was also dosed via deep intramuscular route (unless otherwise specified) on contralateral site of each animal at study initiation. The animals were sedated with Propofol at 6 mg/kg via IV administration. Following sedation hair was carefully removed from around the injection site and the area gently cleaned. Care will be taken to avoid irritating skin during shaving and cleaning the injection site. Then dogs will be dosed with deep IM administration. At least 2.5 cm depth from the surface into the central aspect of the quadriceps or biceps femoris muscle, by angling the needle toward the femur. If the needle hits the femur, simply draws back slightly and then inject. The dose volume will be determined by the animals' body weight collected on the morning of dosing day. For repeated administration, the injection sites may be rotated to minimize tissue injury.

[2] = Plasma stability assay, rat plasma; format: in vitro ADME; conditions: 37° C., 10 μM
Protocol: Plasma stability determination of the test compounds in rat, dog, cynomolgus monkey and human plasma is performed using HPLC-MS. For rat, incubations are carried out in 96-well polypropylene plates in 5 aliquots of 70 μL each (one for each time point). […] Five time points are analyzed (0, 15, 120, 480 and 1440 min). For dog, monkey and human, test compounds (2 μM, final solvent concentration 1%) were also incubated at 37° C. and analyzed at five time points (0, 10, 30, 60 and 120 min). All incubations are performed in duplicates. The samples are analyzed by HPLC-MS. The percentage of parent compound remaining after incubation in plasma is determined.

[3] = Solubility determination in oil (cottonseed oil, sesame oil); conditions: heating temp. 60 °C
Protocol: A known amount of test substance (˜40 mg) was weighed into the vial, 100 μL of oil was added and heated to 60° C. and then system was slurried to reach equilibrium. […] Extra oil was added into the vial once compound precipitated out and then the system was re-equilibrated at 1000 rpm at room temperature (25° C.). Final concentration was determined by HPLC method as described below in Table 6a and 6b.

[4] = Rat pharmacokinetic studies, intramuscular; format: in vivo, male Sprague Dawley Rats; conditions: for Mean conc Nalmefene: rat plasma, IM, 86 mg/ml at 17 mg/kg
Protocol: The purpose of this study is to determine the pharmacokinetics of test compounds in plasma, following intramuscular administration to male Sprague Dawley Rats (n=3, unless otherwise specified).
The dose formulation of 400 mg base equivalents/ml in sesame oil+1% benzyl alcohol (unless otherwise specified) was administered by intramuscular injection. The dose volume was determined by the animals' body weight determined on the morning of dosing day.
Each collected blood sample was centrifuged for 4 minutes at 4° C. and 10000 rpm for plasma collection. Plasma was collected and transferred into a pre-labeled PP tube in dry ice at each time point and precipitated immediately using ACN at a ratio of 1:4 (plasma:ACN). Centrifuged again (10 minutes, 12000 rpm) and obtain the supernatant.
After terminal collection, all supernatant was stored at approximately −80° C. until bioanalysis.
LC-MS/MS methods for the quantitative determination of test compound in biological matrix were developed. […] The sample analysis was performed concurrently with a set of calibration standards and two sets of QC samples using the LC-MS/MS method.
Plasma concentration versus time data was analyzed by non-compartmental approaches using the Phoenix WinNonlin 6.3 software program. Cmax, Tmax, T1/2, AUC(0-t), AUC(0-inf), MRT(0-t), MRT(0-inf) and graphs of plasma concentration versus time profile were prepared.

[5] = rat IM, 17 mg/kg, Sesame oil + 1% Benzyl Alcohol

Structure (SMILES)	% remaining at time point in minutes, 0 min [2]	% remaining at time point in minutes, 15 min [2]	% remaining at time point in minutes, 120 min [2]	% remaining at time point in minutes, 480 min [2]	% remaining at time point in minutes, 1440 min [2]	Approximate Solubility (mg/mL) in Excipient: Sesame oil ([3]; obs. temp. 25 °C)	also measured
C=C1CC[C@@]2(O)C3Cc4ccc(OC(=O)OCCCCCCCCCC)c5c4[C@@]2(CCN3CC2CC2)[C@H]1O5 [Compound 18, (4aS,7aS,12bS)-3-(cyclopropylmethyl)-4a-hydroxy-7-methylene-2,3,4,4a,5,6,7,7a-octahydro-1H-4,12-methanobenzofuro[3,2-e]isoquinolin-9-yl decyl carbonate]	100%	0.6%	0.3%	0.1%	0%	>402 mg/mL	weight decreases from (earlier weight), D1502 [1]: 7.76 kg; Approximate Solubility (mg/mL) in Excipient: Cottonseed oil ([3]; obs. temp. 25 °C): >400 mg/mL
CCCCCCCCCCCCOC(=O)OCOc1ccc2c3c1O[C@H]1C(=O)CC[C@@]4(O)C(C2)N(CC2CC2)CC[C@]314 [Compound 29, (((4aS,7aR,12bS)-3-(cyclopropylmethyl)-4a-hydroxy-7-oxo-2,3,4,4a,5,6,7,7a-octahydro-1H-4,12-methanobenzofuro[3,2-e]isoquinolin-9-yl)oxy)methyl dodecyl carbonate]	–	–	–	–	–	>416.5 mg/mL	AUC0-inf (ng · h/mL) prodrug ([4]; rat IM, 165 mg/kg, Sesame oil + 1% Benzyl Alcohol): 74.8 ng·h/mL
CCCCC/C=C\C/C=C\CCCCCCCC(=O)Oc1ccc2c3c1O[C@H]1C(=O)CC[C@@]4(O)C(C2)N(CC2CC2)CC[C@]314 [Compound 53, (4aS,7aR,12bS)-3-(cyclopropylmethyl)-4a-hydroxy-7-oxo-2,3,4,4a,5,6,7,7a-octahydro-1H-4,12-methanobenzofuro[3,2-e]isoquinolin-9-yl (9Z,12Z)-octadeca-9,12-di.enoate]	100%	46.85%	19.6%	7.3%	1.9%	>401.9 mg/mL	Approximate Solubility (mg/mL) in Excipient: Cottonseed oil ([3]; obs. temp. 25 °C): >408.5 mg/mL; Approximate Solubility (mg/mL) in Excipient: Sesame oil ([3]; obs. temp. 40 °C): >406.3 mg/mL
CCCCCCCCCCCCCCCCCC(=O)Oc1ccc2c3c1O[C@H]1C(=O)CC[C@@]4(O)C(C2)N(CC2CC2)CC[C@]314 [Compound 54, (4aS,7aR,12bS)-3-(cyclopropylmethyl)-4a-hydroxy-7-oxo-2,3,4,4a,5,6,7,7a-octahydro-1H-4,12-methanobenzofuro[3,2-e]isoquinolin-9-yl stearate]	100%	98.8%	62.4%	45.6%	19.4%	<50 mg/mL	–
CCCCCCCCCCCCCC(=O)Oc1ccc2c3c1O[C@H]1C(=O)CC[C@@]4(O)C(C2)N(CC2CC2)CC[C@]314 [Compound 57, (4aS,7aR,12bS)-3-(cyclopropylmethyl)-4a-hydroxy-7-oxo-2,3,4,4a,5,6,7,7a-octahydro-1H-4,12-methanobenzofuro[3,2-e]isoquinolin-9-yl tetradecanoate]	100%	10.5%	3.2%	1.2%	0%	>417.3 mg/mL	–
CCCCCCCCCCCCCCC(=O)Oc1ccc2c3c1O[C@H]1C(=O)CC[C@@]4(O)C(C2)N(CC2CC2)CC[C@]314 [Compound 58, (4aS,7aR,12bS)-3-(cyclopropylmethyl)-4a-hydroxy-7-oxo-2,3,4,4a,5,6,7,7a-octahydro-1H-4,12-methanobenzofuro[3,2-e]isoquinolin-9-yl pentadecanoate]	100%	37%	20%	2.9%	1.8%	99.4 to 198.8 mg/mL	–
C=C1CC[C@@]2(O)C3Cc4ccc(OC(=O)CCCCCCCCCCC)c5c4[C@@]2(CCN3CC2CC2)[C@H]1O5 [Compound 59, (4aS,7aS,12bS)-3-(cyclopropylmethyl)-4a-hydroxy-7-methylene-2,3,4,4a,5,6,7,7a-octahydro-1H-4,12-methanobenzofuro(3,2-c]isoquinolin-9-yl dodecanoate, reference compound]	100%	5.9%	0.7%	0.2%	0%	–	AUC0-inf (ng · h/mL) nalmefene [4, 5]: 1026 ng·h/mL; AUC0-inf (ng · h/mL) prodrug [4, 5]: 10.4 ng·h/mL; Half-life t1/2 (hour) prodrug [4, 5]: 15.2 h; Terminal Half-life t1/2 (hour) nalmefene [4, 5]: 248 h; Mean conc Nalmefene ([4]; 1.00 h): 7.85 ng/mL; Mean conc Nalmefene ([4]; 2.00 h): 8.10 ng/mL; Mean conc Nalmefene ([4]; 4.00 h): 7.45 ng/mL; Mean conc Nalmefene ([4]; 8.00 h): 6.85 ng/mL; Mean conc Nalmefene ([4]; 24.0 h): 6.96 ng/mL; Mean conc Nalmefene ([4]; 48.0 h): 7.92 ng/mL; Mean conc Nalmefene ([4]; 72.0 h): 5.77 ng/mL; Mean conc Nalmefene ([4]; 144 h): 1.59 ng/mL; Mean conc Nalmefene ([4]; 312 h): 0.403 ng/mL; Mean conc Nalmefene ([4]; 480 h): 0.235 ng/mL; Mean conc Nalmefene ([4]; 648 h): 0.145 ng/mL
C=C1CC[C@@]2(O)[C@H]3Cc4ccc(O)c5c4[C@@]2(CCN3CC2CC2)[C@H]1O5.Cl [Nalmefene HCl-IR]	–	–	–	–	–	–	AUC0-inf (ng · h/mL) nalmefene ([4]; rat, 0.80 mg/kg, saline): 66.0 ng·h/mL; Terminal Half-life t1/2 (hour) nalmefene ([4]; rat, 0.80 mg/kg, saline): 0.87 h
